Molecular target: human F508del-CFTR (Homo sapiens, UniProt P13569, DEL508-508)
Assay: F508del-CFTR cell surface expression (corrector activity), DiscoveRx ß-galactosidase complementation chemiluminescence assay in recombinant U2OS cell line;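 also: U2OS cells co-expressing ProLink-tagged F508del-CFTR and a membrane-anchored enzyme acceptor, where more surface CFTR restores β-galactosidase activity measured by chemiluminescence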
Details: for EC50: EC50, F508del-CFTR cell surface expression, U2OS cells, 16h compound incubation, geomean values; for Emax: U2OS, in relation to Emax of corrector lumacaftor (=100%), arithmetic mean values

Chain of human F508del-CFTR (P13569 with tags, fused parts or gaps DEL508-508): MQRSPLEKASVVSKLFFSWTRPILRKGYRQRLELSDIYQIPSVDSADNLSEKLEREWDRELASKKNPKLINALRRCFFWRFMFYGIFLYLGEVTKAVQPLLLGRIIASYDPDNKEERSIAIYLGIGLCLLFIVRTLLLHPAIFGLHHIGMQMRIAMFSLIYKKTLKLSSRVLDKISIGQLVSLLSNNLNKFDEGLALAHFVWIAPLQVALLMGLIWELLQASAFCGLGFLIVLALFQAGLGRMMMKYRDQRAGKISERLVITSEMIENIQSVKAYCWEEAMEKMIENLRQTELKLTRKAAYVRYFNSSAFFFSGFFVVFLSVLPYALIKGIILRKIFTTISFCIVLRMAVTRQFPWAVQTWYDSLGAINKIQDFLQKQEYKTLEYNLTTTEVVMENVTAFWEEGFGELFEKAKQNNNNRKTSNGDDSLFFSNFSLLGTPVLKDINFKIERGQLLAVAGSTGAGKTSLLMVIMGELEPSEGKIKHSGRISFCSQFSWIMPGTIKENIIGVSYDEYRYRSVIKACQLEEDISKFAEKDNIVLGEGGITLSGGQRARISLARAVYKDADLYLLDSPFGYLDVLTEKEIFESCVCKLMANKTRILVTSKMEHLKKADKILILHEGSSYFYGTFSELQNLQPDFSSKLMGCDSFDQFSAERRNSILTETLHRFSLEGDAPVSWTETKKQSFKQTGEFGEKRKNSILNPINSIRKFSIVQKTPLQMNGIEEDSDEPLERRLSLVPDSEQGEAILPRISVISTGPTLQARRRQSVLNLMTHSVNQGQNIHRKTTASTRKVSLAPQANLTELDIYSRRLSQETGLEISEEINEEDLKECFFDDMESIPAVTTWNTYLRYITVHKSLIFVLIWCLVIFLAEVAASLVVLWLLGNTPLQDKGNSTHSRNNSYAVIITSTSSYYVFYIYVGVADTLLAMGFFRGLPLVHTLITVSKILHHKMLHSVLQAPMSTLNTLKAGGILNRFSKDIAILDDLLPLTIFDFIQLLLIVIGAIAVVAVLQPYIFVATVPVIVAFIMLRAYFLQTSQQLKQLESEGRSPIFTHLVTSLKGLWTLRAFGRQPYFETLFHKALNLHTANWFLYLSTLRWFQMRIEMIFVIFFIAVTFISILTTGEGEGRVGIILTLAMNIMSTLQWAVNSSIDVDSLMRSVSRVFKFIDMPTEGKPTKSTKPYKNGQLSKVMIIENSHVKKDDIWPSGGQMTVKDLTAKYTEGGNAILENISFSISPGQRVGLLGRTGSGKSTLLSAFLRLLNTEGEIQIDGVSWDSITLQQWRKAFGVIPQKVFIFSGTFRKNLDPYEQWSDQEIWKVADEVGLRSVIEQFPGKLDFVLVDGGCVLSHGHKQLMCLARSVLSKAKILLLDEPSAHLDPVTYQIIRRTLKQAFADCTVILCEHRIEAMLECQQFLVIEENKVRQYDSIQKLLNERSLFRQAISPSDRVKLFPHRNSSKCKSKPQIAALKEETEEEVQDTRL

CCN1CCN2C(=O)[C@H](CC(C)C)N(C)C(=O)C[C@@H](C(=O)NCCc3cccc(OC)c3)NC(=O)c3c(OC)cccc3OC[C@@H](Cc3ccccc3)NC(=O)[C@H]2C1 [Example 605, (7S,11S,20R,22aR)-20-benzyl-2-ethyl-7-isobutyl-14-methoxy-N-(3-methoxyphenethyl)-8-methyl-6,9,13,22-tetraoxo-1,3,4,6,7,8,9,10,11,12,13,19,20,21,22,22a-hexadecahydro-2H-benzo[p]pyrazino[2,1-f][1]oxa[4,7,10,14]tetraazacycloheptadecine-11-carboxamide] gave an EC50 of 637 nM and an Emax of 257%.
Cc1cc(CCNC(=O)[C@@H]2CC(=O)N(C)[C@@H](CC(C)C)C(=O)N3CCCC[C@H]3C(=O)N[C@H](Cc3ccccc3)COc3ccc4ccccc4c3C(=O)N2)on1 [Example 606, (4aS,7R,18S,22S)-7-benzyl-22-isobutyl-21-methyl-N-(2-(3-methylisoxazol-5-yl)ethyl)-5,16,20,23-tetraoxo-2,3,4,4a,5,6,7,8,16,17,18,19,20,21,22,23-hexadecahydro-1H-naphtho[1,2-p]pyrido[2,1-f][1]oxa[4,7,10,14]tetraazacycloheptadecine-18-carboxamide] gave an EC50 of 521 nM and an Emax of 150%.
For Cc1cc(CCNC(=O)[C@@H]2CC(=O)N(C)[C@@H](CC(C)C)C(=O)N3CCCC[C@@H]3C(=O)N[C@H](Cc3ccccc3)COc3ccc4ccccc4c3C(=O)N2)on1 [Example 607, (4aR,7R,18S,22S)-7-benzyl-22-isobutyl-21-methyl-N-(2-(3-methylisoxazol-5-yl)ethyl)-5,16,20,23-tetraoxo-2,3,4,4a,5,6,7,8,16,17,18,19,20,21,22,23-hexadecahydro-1H-naphtho[1,2-p]pyrido[2,1-f][1]oxa[4,7,10,14]tetraazacycloheptadecine-18-carboxamide], the EC50 was 121 nM and the Emax was 283%.
Cc1cc(CCNC(=O)[C@@H]2CC(=O)N(C)[C@@H](CC(C)C)C(=O)N3CCOC[C@@H]3C(=O)N[C@H](Cc3ccccc3)COc3ccc4ccccc4c3C(=O)N2)on1 [Example 608, (4aR,7R,18S,22S)-7-benzyl-22-isobutyl-21-methyl-N-(2-(3-methylisoxazol-5-yl)ethyl)-5,16,20,23-tetraoxo-1,2,4,4a,5,6,7,8,16,17,18,19,20,21,22,23-hexadecahydronaphtho[1,2-p][1,4]oxazino[3,4-f][1]oxa[4,7,10,14]tetraazacycloheptadecine-18-carboxamide] showed an EC50 of 804 nM and an Emax of 267%.
COc1cc(OC)c2c(c1)OC[C@@H](Cc1ccccc1)NC(=O)[C@H]1CCCCN1C(=O)[C@H](CC(C)C)N(C)C(=O)C[C@@H](C(=O)NCCc1cc(C)no1)NC2=O [Example 609, (7S,11S,20R,22aR)-20-benzyl-7-isobutyl-14,16-dimethoxy-8-methyl-N-(2-(3-methylisoxazol-5-yl)ethyl)-6,9,13,22-tetraoxo-1,3,4,6,7,8,9,10,11,12,13,19,20,21,22,22a-hexadecahydro-2H-benzo[p]pyrido[2,1-f][1]oxa[4,7,10,14]tetraazacycloheptadecine-11-carboxamide] was tested, and the EC50 was 574 nM and the Emax was 320%.
For CC(C)C[C@H]1C(=O)N(CCC2CCCCC2)CC(=O)N[C@H](Cc2ccccc2)COc2cnc3ccccc3c2C(=O)N[C@H](C(=O)NCCc2ccc3c(c2)OCO3)CC(=O)N1C [Example 610, (3S,7S,13R)-N-(2-(benzo[d][1,3]dioxol-5-yl)ethyl)-13-benzyl-9-(2-cyclohexylethyl)-7-isobutyl-6-methyl-1,5,8,11-tetraoxo-1,2,3,4,5,6,7,8,9,10,11,12,13,14-tetradecahydro-[1]oxa[4,7,10,14]tetraazacycloheptadecino[17,16-c]quinoline-3-carboxamide], the EC50 was 89 nM and the Emax was 311%.
In the case of COc1cccc(CCNC(=O)[C@@H]2CC(=O)N(C)[C@@H](CC(C)C)C(=O)N3CCN(C(C)C)C[C@@H]3C(=O)N[C@H](Cc3ccccc3)COc3cccc(OC)c3C(=O)N2)c1 [Example 611, (7S,11S,20R,22aR)-20-benzyl-7-isobutyl-2-isopropyl-14-methoxy-N-(3-methoxyphenethyl)-8-methyl-6,9,13,22-tetraoxo-1,3,4,6,7,8,9,10,11,12,13,19,20,21,22,22a-hexadecahydro-2H-benzo[p]pyrazino[2,1-f][1]oxa[4,7,10,14]tetraazacycloheptadecine-11-carboxamide], the EC50 is reported as 344 nM and the Emax is reported as 251%.
COc1cccc(CCNC(=O)[C@@H]2CC(=O)N(C)[C@@H](CC(C)C)C(=O)N3CCN(CC(C)C)C[C@@H]3C(=O)N[C@H](Cc3ccccc3)COc3cccc(OC)c3C(=O)N2)c1 [Example 612, (7S,11S,20R,22aR)-20-benzyl-2,7-diisobutyl-14-methoxy-N-(3-methoxyphenethyl)-8-methyl-6,9,13,22-tetraoxo-1,3,4,6,7,8,9,10,11,12,13,19,20,21,22,22a-hexadecahydro-2H-benzo[p]pyrazino[2,1-f][1]oxa[4,7,10,14]tetraazacycloheptadecine-11-carboxamide] showed an EC50 of 148 nM and an Emax of 298%.
For COc1cc(CCNC(=O)[C@@H]2CC(=O)N(C)[C@@H](CC(C)C)C(=O)N3CCN(CC(C)C)C[C@@H]3C(=O)N[C@H](Cc3ccccc3)COc3ccc4ccccc4c3C(=O)N2)cc(OC)c1 [Example 613, (4aR,7R,18S,22S)-7-benzyl-N-(3,5-dimethoxyphenethyl)-3,22-diisobutyl-21-methyl-5,16,20,23-tetraoxo-2,3,4,4a,5,6,7,8,16,17,18,19,20,21,22,23-hexadecahydro-1H-naphtho[1,2-p]pyrazino[2,1-f][1]oxa[4,7,10,14]tetraazacycloheptadecine-18-carboxamide], the EC50 was 82 nM and the Emax was 312%.
In the case of COc1cccc(CCNC(=O)[C@@H]2CC(=O)N(C)[C@@H](CC(C)C)C(=O)N3CCCC[C@@H]3C(=O)N[C@H](Cc3ccccc3)COc3ccc4nc(C)oc4c3C(=O)N2)c1 [Example 614, (8S,12S,18aR,21R)-21-benzyl-12-isobutyl-N-(3-methoxyphenethyl)-4,11-dimethyl-6,10,13,19-tetraoxo-6,7,8,9,10,11,12,13,16,17,18,18a,19,20,21,22-hexadecahydro-15H-oxazolo[4′,5′:5,6]benzo[1,2-p]pyrido[2,1-f][1]oxa[4,7,10,14]tetraazacycloheptadecine-8-carboxamide], the EC50 is reported as 484 nM and the Emax is reported as 317%.
Molecule COc1cccc(CCNC(=O)[C@@H]2CC(=O)N(C)[C@@H](CC(C)C)C(=O)N3CCCC[C@H]3C(=O)N[C@H](Cc3ccccc3)COc3ccc4nc(C)oc4c3C(=O)N2)c1 [Example 615, (8S,12S,18aS,21R)-21-benzyl-12-isobutyl-N-(3-methoxyphenethyl)-4,11-dimethyl-6,10,13,19-tetraoxo-6,7,8,9,10,11,12,13,16,17,18,18a,19,20,21,22-hexadecahydro-15H-oxazolo[4′,5′:5,6]benzo[1,2-p]pyrido[2,1-f][1]oxa[4,7,10,14]tetraazacycloheptadecine-8-carboxamide] has an EC50 of 465 nM and an Emax of 170%.
Molecule CC(C)C[C@H]1C(=O)N(C)CC(=O)N[C@H](Cc2ccccc2)COc2cccc(OC(F)F)c2C(=O)N[C@H](C(=O)NCCc2ccc3c(c2)OCO3)CC(=O)N1C [Example 616, (3R,9S,13S)-N-(2-(benzo[d][1,3]dioxol-5-yl)ethyl)-3-benzyl-16-(difluoromethoxy)-9-isobutyl-7,10-dimethyl-5,8,11,15-tetraoxo-2,3,4,5,6,7,8,9,10,11,12,13,14,15-tetradecahydrobenzo[p][1]oxa[4,7,10,14]tetraazacycloheptadecine-13-carboxamide] has an EC50 of 581 nM and an Emax of 92%.
Cc1cc(CCNC(=O)[C@@H]2CC(=O)N(C)[C@@H](CC(C)C)C(=O)N3CCN(CC(C)C)C[C@@H]3C(=O)N[C@H](Cc3ccccc3)COc3ccc4ccccc4c3C(=O)N2)on1 [Example 617, (4aR,7R,18S,22S)-7-benzyl-3,22-diisobutyl-21-methyl-N-(2-(3-methylisoxazol-5-yl)ethyl)-5,16,20,23-tetraoxo-2,3,4,4a,5,6,7,8,16,17,18,19,20,21,22,23-hexadecahydro-1H-naphtho[1,2-p]pyrazino[2,1-f][1]oxa[4,7,10,14]tetraazacycloheptadecine-18-carboxamide] showed an EC50 of 75 nM and an Emax of 318%.
COc1cc(CCNC(=O)[C@@H]2CC(=O)N(C)[C@@H](CC(C)C)C(=O)N3CCN(C(C)C)C[C@@H]3C(=O)N[C@H](Cc3ccccc3)COc3ccc4ccccc4c3C(=O)N2)cc(OC)c1 [Example 618, (4aR,7R,18S,22S)-7-benzyl-N-(3,5-dimethoxyphenethyl)-22-isobutyl-3-isopropyl-21-methyl-5,16,20,23-tetraoxo-2,3,4,4a,5,6,7,8,16,17,18,19,20,21,22,23-hexadecahydro-1H-naphtho[1,2-p]pyrazino[2,1-f][1]oxa[4,7,10,14]tetraazacycloheptadecine-18-carboxamide] showed an EC50 of 80 nM and an Emax of 309%.
Work on COc1cccc(CCNC(=O)[C@@H]2CC(=O)N(C)[C@@H](CC(C)C)C(=O)N3CCN(CC(C)C)C[C@@H]3C(=O)N[C@H](Cc3ccccc3)COc3ccc4nc(C)oc4c3C(=O)N2)c1 [Example 619, (8S,12S,18aR,21R)-21-benzyl-12,17-diisobutyl-N-(3-methoxyphenethyl)-4,11-dimethyl-6,10,13,19-tetraoxo-6,7,8,9,10,11,12,13,16,17,18,18a,19,20,21,22-hexadecahydro-15H-oxazolo[4′,5′:5,6]benzo[1,2-p]pyrazino[2,1-f][1]oxa[4,7,10,14]tetraazacycloheptadecine-8-carboxamide] yielded an EC50 of 155 nM and an Emax of 322%.
Molecule Cc1cc(CCNC(=O)[C@@H]2CC(=O)N(C)[C@@H](CC(C)C)C(=O)N3CCN(CC(C)C)C[C@@H]3C(=O)N[C@H](Cc3ccccc3)COc3ccc4nc(C)oc4c3C(=O)N2)on1 [Example 620, (8S,12S,18aR,21R)-21-benzyl-12,17-diisobutyl-4,11-dimethyl-N-(2-(3-methylisoxazol-5-yl)ethyl)-6,10,13,19-tetraoxo-6,7,8,9,10,11,12,13,16,17,18,18a,19,20,21,22-hexadecahydro-15H-oxazolo[4′,5′:5,6]benzo[1,2-p]pyrazino[2,1-f][1]oxa[4,7,10,14]tetraazacycloheptadecine-8-carboxamide] has an EC50 of 316 nM and an Emax of 266%.

From patent US20240208992A1, “MACROCYCLES AS CFTR MODULATORS” (Idorsia Pharmaceuticals Ltd, priority 2021, published 2024)
